According to ChEMBL document CHEMBL1123974, “A comprehensive method for determining hydrophobicity constants by reversed-phase high-performance liquid chromatography” (J Med Chem, 1988):

How the values were obtained:
physchem = details: octanol/water
[1] = octanol/water

Compound | logP (physchem) | Log k' w [1]
N#Cc1cccc(O)c1 | 1.7 | 1.557
COc1ccc(CO)cc1 | 1.1 | 0.815
COc1ccc(N)cc1 | 0.95 | 0.603
CC12CCC(C(=O)C1=O)C2(C)C (centres undefined) | 1.52 | 1.42
Oc1cccc(Cl)c1 | – | 2.391
Oc1ccc(F)cc1 | – | 1.575
Oc1ccc(I)cc1 | – | 2.795
O=[N+]([O-])c1ccc(Cl)cc1 | 2.3 | 2.165
N#Cc1cccc([N+](=O)[O-])c1 | 1.17 | 1.014
Oc1cccc(F)c1 | – | 1.749
Nc1cccc2ccccc12 | – | 2.203
COc1ccc([N+](=O)[O-])cc1 | – | 1.857
Oc1cccc(C(F)(F)F)c1 | – | 2.847
CCc1cccc(O)c1 | 2.4 | 2.228
Cc1ccc(N)cc1 | – | 1.405
Nc1cccc(F)c1 | 1.3 | 1.225

Compound | logP (physchem) | Log k' w [1]
CC(=O)Nc1ccc(Br)cc1 | 2.29 | 2.293
COc1cccc(O)c1 [1-hydroxy-3-methoxybenzene] | – | 1.254
Nc1ccc(Br)cc1 [4-BROMOANILINE] | – | 2.043
Nc1ccc(Cl)cc1 [4-CHLOROANILINE] | 1.83 | 1.855
CC(=O)c1ccccc1 [ACETOPHENONE] | – | 1.359
COc1ccccc1 [ANISOLE] | – | 2.006
c1ccc(/N=N/c2ccccc2)cc1 [AZOBENZENE] | 3.82 | 3.961
N#Cc1ccccc1 [BENZONITRILE] | – | 1.279
c1ccc2[nH]ccc2c1 [INDOLE] | 2.14 | 2.014
COc1ccc(O)cc1 [MEQUINOL] | – | 1.004
O=[N+]([O-])c1ccccc1 [NITROBENZENE] | – | 1.633
Oc1ccc(Cl)cc1 [PARACHLOROPHENOL] | – | 2.31
Oc1ccccc1 [PHENOL] | – | 1.251
Oc1cccc(O)c1 [RESORCINOL] | – | 0.544
Cc1ccc(C(C)C)c(O)c1 [THYMOL] | – | 3.092
Cc1ccc(O)cc1 [p-CRESOL] | – | 1.759
